Here are results for 3 compounds from patent publication US9212139B2, “Aryl substituted indoles and their use as blockers of sodium channels” (Purdue Pharma, L.P., priority 2010, dated 2015).

Experiment [1] concerns the target human Nav1.7 (Homo sapiens (Human), UniProt Q15858). Put plainly: FLIPR or FLIPR TETRA sodium dye assay with KCl and test article pre-incubation. The experiment is classed as cell-based. Conditions: sodium dye assay with KCl; recombinant human Nav1.7 in HEK293 cells; value ± SEM. From the text:
For dominant selection of the Nav1.7-expressing clones, the expression plasmid co-expressed the neomycin resistance gene. […] Recombinant beta and gamma subunits were not introduced into this cell line. Additional cell lines expressing recombinant Nav1.7 cloned from other species can also be used, alone or in combination with various beta subunits, gamma subunits or chaperones.
Cell maintenance: Unless otherwise noted, cell culture reagents were purchased from Mediatech of Herndon, Va. The recombinant Nav1.7/HEK293 cells were routinely cultured in growth medium consisting of Dulbecco's […] containing 10% fetal bovine serum (FBS, Hyclone, Thermo Fisher Scientific, Logan, Utah), 100 U/mL penicillin, […], 2-4 mM L-glutamine, and […]. For natural, non-recombinant cell lines, the selective antibiotic was omitted, and additional media formulations can be applied as needed.
The intensity of this emission, but not the wavelength range, is increased when the dye is exposed to Na^+ ions, which it can bind with partial selectivity. Cells expressing Nav1.7 or other sodium channels were loaded with the CoroNa™ Green dye immediately in advance of the fluorescence assay, and then, after agonist stimulation, the mobilization of Na^+ ions was detected as the Na^+ ions flowed from the extracellular fluid into the cytoplasm through the activated sodium channel pores. The dye was stored in the dark as a lyophilized powder, and then an aliquot was dissolved immediately before the cell loading procedure, according to the instructions of the manufacturer to a stock concentration of 10 mM in DMSO. It was then diluted in the assay buffer to a 4× concentrated working solution, so that the final concentration of dye in the cell loading buffer was 5 μM.
These scorpion toxins inhibit the fast inactivation of their cognate target channels. Stock solutions of the agonists were prepared to 40 mM in DMSO (veratridine) and 1 mg/mL in dH2O (scorpion venom), and then diluted to make a 4× or 2× stock (depending on the particular assay) in assay buffer, the final concentration being 100 μM (veratridine) and 10 μg/mL (scorpion venom). Both of the agonists were purchased from Sigma Aldrich, St. Louis, Mo.
Test Compounds: Test compounds were dissolved in DMSO to yield 10 mM stock solutions. […] If a particular test article appeared to be especially potent, then the concentration curve was adjusted, e.g., to 10-fold lower concentrations, in order to perform the dose-response in a more relevant concentration range. Compound dilutions were added during the dye-loading and pre-stimulation step, and then again during the fluorescence assay, early in the kinetic read.
Data Analysis: The data were analyzed according to methods known to those skilled in the art or using the GraphPad® Prism 4.0 Program (available from GraphPad Software, San Diego, Calif.) to determine the IC50 value for the test article. At least one standard reference compound was evaluated during each experiment.
FLIPR® or FLIPR^TETRA® sodium dye assay with KCl and test article pre-incubation: Cells were prepared by plating the recombinant HEK293 cells or other host cells expressing either recombinant or non-recombinant, native, Nav1.7 alpha subunit, alone or in combination with various beta and gamma subunits at a density of ˜40,000 cells/well into a 96-well black, clear-bottom, PDL-coated plate. The assay can be adapted to 384-well or 1,536-well format, if desired, using proportionately less cells and media. […] For counter-screens of other voltage-gated sodium channels, the procedure was very similar, though optimal densities of cells, media and subsequent assay components can be fine-tuned for the particular cell line or isoform.

Experiment [2] concerns the target hNav1.7 (Homo sapiens (Human), UniProt Q15858). Put plainly: Electrophysiology (EP) assay, whole-cell patch clamp. It is filed as cell-based. Particulars: whole-cell patch clamp, hNav1.7 expressing HEK-293 cells; read-out: EP Nav1.7 Ki. Here is the method:
Cells: The hNav1.7 expressing HEK-293 cells were plated on 35 mm culture dishes pre-coated with poly-D-lysine in standard DMEM culture media (Mediatech, Inc., Herndon, Va.) and incubated in a 5% CO2 incubator at 37° C. Cultured cells were used approximately 12-48 hours after plating.
Electrophysiology: On the day of experimentation, the 35 mm dish was placed on the stage of an inverted microscope equipped with a perfusion system that continuously perfuses the culture dish with fresh recording media. A gravity driven superfusion system was used to apply test solutions directly to the cell under evaluation. This system consists of an array of glass pipette glass connected to a motorized horizontal translator. The outlet of the shooter was positioned approximately 100 μm from the cell of interest.
Gigaseals were formed and the whole-cell configuration was established in voltage clamp mode, and membrane currents generated by hNav1.7 were recorded in gap-free mode. […] Signals were sampled at 50 kHz and low pass filtered at 3 kHz.
The voltage clamp protocol to examine hNav1.7 currents was as follows. First, the standard current-voltage relationship was tested by pulsing the cell from the holding voltage (Vh) of −120 mV by a series of 5 msec long square-shaped test pulses incrementing in +10 mV steps over the membrane voltage range of −90 mV to +60 mV at the pace of stimulation of 0.5 Hz. This procedure determines the voltage that elicits the maximal current (Vmax). […] This procedure determines the voltage of full inactivation (Vfull). Third, the cell was repeatedly stimulated with the following protocol, first in the absence of the test compound then in its presence. The protocol consisted of depolarizing the cell from the holding potential of −120 mV to the Vfull value for 4.5 seconds then repolarizing the cell to the holding potential for 10 ms before applying the test pulse to the Vmax for 5 ms. The amount of inhibition produced by the test compound was determined by comparing the current amplitude elicited by the test pulse in the absence and presence of the compound.
Vehicle solution used to establish base line was also contacting 0.3% DMSO.
Data analysis: Data was analyzed off-line using Clampfit software (pClamp, v. 8; Axon Instruments) and graphed using GraphPad Prizm (v. 4.0) software.
(Patch clamp records ionic current or voltage across a cell membrane.)

In experiment [3] the test system is spinal nerve ligation (SNL; Chung model of neuropathic pain). Put plainly: Mechanical hyperalgesia (paw withdrawal threshold) in the Chung spinal nerve ligation model. It is filed as in vivo. Particulars: rats, intraperitoneal (i.p.) administration, from 1 to 3 hours. The protocol:
Test Animals: Each experiment uses rats weighing between 200-260 g at the start of the experiment. The rats are group-housed and have free access to food and water at all times, except prior to oral administration of a test compound when food is removed for 16 hours before dosing. A control group acts as a comparison to rats treated with a compound of Formulae I-XX. The control group is administered the carrier as used for the test compound. The volume of carrier administered to the control group is the same as the volume of carrier and test compound administered to the test group.
In the Chung model, the spinal nerve ligation model of neuropathic pain was used to produce mechanical hyperalgesia, thermal hyperalgesia and tactile allodynia in rats. […] The animals were assessed for response to noxious mechanical stimuli by determining PWT, as described below, prior to surgery (baseline), then immediately prior to and 1, 3, and 5 hours after being administered a compound of Formulae I-XX for the left rear paw of the animal. The animals can also be assessed for response to noxious thermal stimuli or for tactile allodynia, as described below. […]
Mechanical Hyperalgesia: Sensitivity to noxious mechanical stimuli can be measured in animals using the paw pressure test to assess mechanical hyperalgesia. […] PWT is determined once for each rat at each time point. […]

The structures appear in SMILES notation.

Chain of human Nav1.7 (Q15858 other isoform, or with tags, fused parts or gaps): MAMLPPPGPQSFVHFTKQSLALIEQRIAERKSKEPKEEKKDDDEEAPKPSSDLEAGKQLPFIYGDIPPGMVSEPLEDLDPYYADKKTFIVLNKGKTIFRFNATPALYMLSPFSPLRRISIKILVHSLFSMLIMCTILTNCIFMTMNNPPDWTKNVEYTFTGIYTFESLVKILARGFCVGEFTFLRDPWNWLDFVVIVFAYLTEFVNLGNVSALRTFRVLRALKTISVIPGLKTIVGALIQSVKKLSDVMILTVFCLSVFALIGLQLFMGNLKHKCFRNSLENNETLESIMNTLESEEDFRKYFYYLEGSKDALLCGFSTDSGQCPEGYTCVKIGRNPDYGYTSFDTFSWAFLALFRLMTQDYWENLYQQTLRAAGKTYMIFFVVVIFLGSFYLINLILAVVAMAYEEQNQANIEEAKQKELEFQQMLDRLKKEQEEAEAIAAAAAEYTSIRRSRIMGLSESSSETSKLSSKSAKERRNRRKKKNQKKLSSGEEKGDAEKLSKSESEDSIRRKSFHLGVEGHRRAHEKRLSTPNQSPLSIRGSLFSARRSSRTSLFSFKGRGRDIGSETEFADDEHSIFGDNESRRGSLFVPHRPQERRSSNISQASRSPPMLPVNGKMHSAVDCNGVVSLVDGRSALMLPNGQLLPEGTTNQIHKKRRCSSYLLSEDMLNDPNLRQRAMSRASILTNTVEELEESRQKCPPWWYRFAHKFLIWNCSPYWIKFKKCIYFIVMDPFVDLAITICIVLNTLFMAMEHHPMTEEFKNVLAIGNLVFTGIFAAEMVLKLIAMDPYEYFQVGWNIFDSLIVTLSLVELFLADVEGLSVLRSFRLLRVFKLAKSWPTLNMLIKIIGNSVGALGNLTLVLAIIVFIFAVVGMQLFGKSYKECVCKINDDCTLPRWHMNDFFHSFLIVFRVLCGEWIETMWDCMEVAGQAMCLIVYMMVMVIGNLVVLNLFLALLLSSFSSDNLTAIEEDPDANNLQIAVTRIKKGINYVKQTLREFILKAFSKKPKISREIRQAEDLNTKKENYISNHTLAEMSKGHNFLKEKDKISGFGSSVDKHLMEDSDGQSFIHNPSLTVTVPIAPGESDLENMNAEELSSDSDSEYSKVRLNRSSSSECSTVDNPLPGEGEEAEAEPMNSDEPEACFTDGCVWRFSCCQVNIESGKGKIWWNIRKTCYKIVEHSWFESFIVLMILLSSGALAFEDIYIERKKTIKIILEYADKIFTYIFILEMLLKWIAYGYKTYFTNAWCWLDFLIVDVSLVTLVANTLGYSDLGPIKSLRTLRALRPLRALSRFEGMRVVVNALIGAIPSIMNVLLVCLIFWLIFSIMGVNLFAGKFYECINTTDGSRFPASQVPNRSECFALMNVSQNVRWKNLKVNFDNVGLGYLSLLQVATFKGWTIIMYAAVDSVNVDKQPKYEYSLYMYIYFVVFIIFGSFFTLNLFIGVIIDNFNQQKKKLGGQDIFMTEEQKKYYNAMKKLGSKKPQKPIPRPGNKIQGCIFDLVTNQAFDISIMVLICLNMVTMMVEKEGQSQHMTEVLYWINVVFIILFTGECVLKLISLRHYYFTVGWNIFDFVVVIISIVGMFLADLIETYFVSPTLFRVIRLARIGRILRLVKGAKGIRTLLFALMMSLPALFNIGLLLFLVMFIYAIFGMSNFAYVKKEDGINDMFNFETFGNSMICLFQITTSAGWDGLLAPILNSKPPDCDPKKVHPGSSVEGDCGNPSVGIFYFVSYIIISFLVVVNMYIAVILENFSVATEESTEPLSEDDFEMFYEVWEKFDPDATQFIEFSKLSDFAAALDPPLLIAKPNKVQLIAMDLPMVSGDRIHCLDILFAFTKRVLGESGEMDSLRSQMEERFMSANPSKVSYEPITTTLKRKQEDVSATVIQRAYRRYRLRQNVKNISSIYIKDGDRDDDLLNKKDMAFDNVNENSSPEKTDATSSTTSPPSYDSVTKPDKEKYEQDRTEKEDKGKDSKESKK
Chain of hNav1.7 (Q15858 other isoform, or with tags, fused parts or gaps): as above

What is called IC50 is the midpoint of a concentration-inhibition curve. As a reminder, the Ki is a measure of affinity in units of concentration, obtained from inhibition or displacement. Turning to `N#Cc1cc(Oc2ccc(-n3cc(C(O)C(N)=O)c4ccccc43)cc2)ccc1C(F)(F)F` (centres unmarked) [Compound 60, 2-(1-(4-(3-Cyano-4-(trifluoromethyl)phenoxy)phenyl)-1H-indol-3-yl)-2-hydroxyacetamide], the IC50 in experiment [1] came out at 0.224 ± 0.038 µM. In experiment [2], the Ki was found to be 400 nM. Besides, the “reversal of mechanical hyperalgesia” value in experiment [3] was 10%-25%.

As for `N#Cc1cc(Oc2ccc(-n3cc(C[C@H](N)CO)c4ccccc43)cc2)ccc1C(F)(F)F` [Compound 47, (S)-5-{4-[3-(2-Amino-3-hydroxypropyl)-1H-indol-1-yl]phenoxy}-2-(trifluoromethyl)benzonitrile], in experiment [1], the IC50 was 0.213 ± 0.052 µM. The inhibitory constant (Ki) in experiment [2] came to 160 nM. Also, the “reversal of mechanical hyperalgesia” value in experiment [3] is 10%-25%.

As to `CCN(CC)CCn1cc(C(O)C(N)=O)c2cc(-c3ccc(Oc4ccc(F)cc4)cc3)ccc21` (centres unmarked) [Compound 179, 2-(1-(2-(Diethylamino)ethyl)-5-(4-(4-fluorophenoxy)phenyl)-1H-indol-3-yl)-2-hydroxyacetamide], the IC50 in experiment [1] came to 0.912 ± 0.079 µM. Moreover, the Ki in experiment [2] is 270 nM.
